# Experimental data reported in publication PMC4815019, “The Terminal Oxidase Cytochrome bd Promotes Sulfide-resistant Bacterial Respiration and Growth” (Scientific Reports, 2016).
# Experiments:
# [1] = target: T1, cytochrome bo3 (heme-copper bo3 oxidase) (Escherichia coli, UniProt P0ABI8); assay: O2 consumption, high-resolution respirometry (Oxygraph-2k); Hill fit with n = […]; type: biochemical
# T1 construct: gene cyoB; dodecyl maltoside micelles; with Cytochrome bo(3) ubiquinol oxidase subunit 2; Cytochrome bo(3) ubiquinol oxidase subunit 3; Cytochrome bo(3) ubiquinol oxidase subunit 4
# T1 sequence (P0ABJ3 whole entry): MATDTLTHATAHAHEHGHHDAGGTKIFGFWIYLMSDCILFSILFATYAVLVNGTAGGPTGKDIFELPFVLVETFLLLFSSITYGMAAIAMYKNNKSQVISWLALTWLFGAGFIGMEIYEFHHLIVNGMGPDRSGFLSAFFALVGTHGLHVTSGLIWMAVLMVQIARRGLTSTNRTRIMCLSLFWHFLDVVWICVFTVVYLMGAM
# T1 sequence (P0ABI8 whole entry): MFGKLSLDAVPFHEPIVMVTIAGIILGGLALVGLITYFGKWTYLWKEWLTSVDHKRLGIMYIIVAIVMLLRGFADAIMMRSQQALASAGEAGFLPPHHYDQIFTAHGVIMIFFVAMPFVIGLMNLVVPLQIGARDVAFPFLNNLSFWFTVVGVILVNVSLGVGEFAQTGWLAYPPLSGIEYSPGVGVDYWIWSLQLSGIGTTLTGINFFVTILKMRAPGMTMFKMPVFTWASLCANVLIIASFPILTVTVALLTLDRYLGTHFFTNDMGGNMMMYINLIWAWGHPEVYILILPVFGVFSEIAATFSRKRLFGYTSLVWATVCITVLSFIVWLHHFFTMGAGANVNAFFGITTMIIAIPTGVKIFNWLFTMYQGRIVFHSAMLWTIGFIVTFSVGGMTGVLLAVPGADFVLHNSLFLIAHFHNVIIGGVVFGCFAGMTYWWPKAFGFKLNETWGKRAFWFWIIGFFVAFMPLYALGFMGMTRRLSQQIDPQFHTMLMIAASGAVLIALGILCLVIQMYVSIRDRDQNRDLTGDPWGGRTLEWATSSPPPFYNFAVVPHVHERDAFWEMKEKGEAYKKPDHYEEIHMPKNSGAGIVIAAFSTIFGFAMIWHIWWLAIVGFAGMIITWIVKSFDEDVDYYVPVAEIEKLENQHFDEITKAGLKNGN
# T1 sequence (P0ABJ1 25-315, further chain): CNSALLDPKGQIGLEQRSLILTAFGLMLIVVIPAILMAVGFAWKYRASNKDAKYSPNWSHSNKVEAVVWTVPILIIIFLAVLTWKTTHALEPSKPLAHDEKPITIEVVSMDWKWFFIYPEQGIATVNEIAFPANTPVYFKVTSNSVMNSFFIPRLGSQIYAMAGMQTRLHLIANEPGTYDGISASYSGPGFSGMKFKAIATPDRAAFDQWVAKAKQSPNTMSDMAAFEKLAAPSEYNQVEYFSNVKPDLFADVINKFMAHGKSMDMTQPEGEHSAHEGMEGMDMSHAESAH
# T1 sequence (P0ABJ6 whole entry, further chain): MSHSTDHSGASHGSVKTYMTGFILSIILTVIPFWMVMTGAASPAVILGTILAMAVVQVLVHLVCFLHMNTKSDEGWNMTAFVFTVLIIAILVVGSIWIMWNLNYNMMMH
# [2] = target: O-acetylserine sulfhydrylase from Entamoeba histolytica (Entamoeba histolytica); assay: SEC; 120-ml Superdex S-200 column, buffer A (50 mM potassium phosphate, 300 mM KCl, pH 7.5, 10% glycerol), 0.7 mL/min
Molecule,IC50 [1],stoichiometry N [2]
S [NaHS],1.1 ± 0.1 µM,
O-acetylserine sulfhydrylase from Entamoeba histolytica (enzyme),,2
